Source: patent publication US10206921B2, “Methods and compositions for treating a subject for central nervous system (CNS) injury” (THE REGENTS OF THE UNIVERSITY OF CALIFORNIA, priority 2009, dated 2019)
“Also recorded” adds a separate entry of the source.

Experiments:
GABAARs = experiment: GABAAR saturation test: GABA raised in ACSF after blocking both GATs; type: cell-based, mouse; details: GABA +10 μM in ACSF after 10 μM NO-711+40 μM SNAP-5114; control slices; n=3
Description: Whole-cell patch-clamp recordings were made from post-stroke brain slices, within 200 μm of infarct (top left), from layer-2/3 (top right) pyramidal neurons (bottom panels) (FIG. 1A). Cells were voltage-clamped at +10 mV.

α5GABAA receptor = biological target: T1, α5GABAA receptor (Mus musculus, UniProt P22723+Q8BHJ7); experiment: Whole-cell patch-clamp of tonic inhibition (Itonic) in brain slices with L655,708; type: cell-based
T1 construct: Whole-cell patch-clamp recordings were made from post-stroke brain slices; from tissue; host or cells: brain slices, peri-infarct motor cortex, layer 2/3 pyramidal neurons
T1 sequence (Q8BHJ7 32-463 limits assumed): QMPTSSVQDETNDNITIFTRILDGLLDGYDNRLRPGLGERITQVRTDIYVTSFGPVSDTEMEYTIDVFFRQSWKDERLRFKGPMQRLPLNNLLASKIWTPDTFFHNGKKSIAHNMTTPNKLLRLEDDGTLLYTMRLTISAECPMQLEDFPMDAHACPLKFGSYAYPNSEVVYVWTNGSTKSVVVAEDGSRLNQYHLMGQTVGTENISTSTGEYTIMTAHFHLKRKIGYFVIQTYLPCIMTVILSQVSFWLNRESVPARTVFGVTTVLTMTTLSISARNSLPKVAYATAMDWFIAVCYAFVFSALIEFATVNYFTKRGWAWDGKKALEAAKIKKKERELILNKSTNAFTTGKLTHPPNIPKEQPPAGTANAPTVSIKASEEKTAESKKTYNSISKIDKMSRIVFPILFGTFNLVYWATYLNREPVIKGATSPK
T1 sequence (P22723 39-474): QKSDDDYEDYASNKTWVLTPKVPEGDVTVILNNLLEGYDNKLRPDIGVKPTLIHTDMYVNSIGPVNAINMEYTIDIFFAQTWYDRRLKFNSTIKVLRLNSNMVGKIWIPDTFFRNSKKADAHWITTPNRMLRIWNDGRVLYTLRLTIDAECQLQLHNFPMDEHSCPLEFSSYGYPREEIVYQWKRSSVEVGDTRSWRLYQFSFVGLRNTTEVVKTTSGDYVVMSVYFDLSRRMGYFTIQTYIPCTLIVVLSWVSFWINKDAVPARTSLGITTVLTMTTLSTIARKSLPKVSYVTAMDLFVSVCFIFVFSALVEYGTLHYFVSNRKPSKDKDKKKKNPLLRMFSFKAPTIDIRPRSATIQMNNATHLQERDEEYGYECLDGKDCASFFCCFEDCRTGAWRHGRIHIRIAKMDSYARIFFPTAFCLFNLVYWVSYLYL
T1 sequence (P63080 26-473 partner): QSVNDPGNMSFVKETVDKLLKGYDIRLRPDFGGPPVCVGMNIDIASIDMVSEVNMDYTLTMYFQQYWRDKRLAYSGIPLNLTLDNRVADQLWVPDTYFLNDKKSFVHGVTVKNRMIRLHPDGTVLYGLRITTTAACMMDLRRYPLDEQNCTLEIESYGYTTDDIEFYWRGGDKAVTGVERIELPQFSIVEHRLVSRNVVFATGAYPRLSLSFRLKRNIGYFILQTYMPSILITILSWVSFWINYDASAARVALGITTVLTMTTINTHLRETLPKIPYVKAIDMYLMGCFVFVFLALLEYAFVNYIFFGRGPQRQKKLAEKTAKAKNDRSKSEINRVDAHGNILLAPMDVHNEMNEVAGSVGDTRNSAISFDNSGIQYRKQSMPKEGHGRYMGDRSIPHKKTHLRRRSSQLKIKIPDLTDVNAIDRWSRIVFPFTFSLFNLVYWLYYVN
Description: (§1) Whole-cell patch-clamp recordings were made from post-stroke brain slices, within 200 μm of infarct (top left), from layer-2/3 (top right) pyramidal neurons (bottom panels) (FIG. 1A). Cells were voltage-clamped at +10 mV. […] FIGS. 1C and D show representative traces showing the tonic inhibitory currents in control and peri-infarct neurons, respectively.
(§2) Itonic remained elevated from 3- to 14-days post-stroke.
(§3) In post-stroke neurons, co-application only produced an effect (110.7±32.0%, n=5) similar to GAT-1 blockade alone (P<0.68; FIG. 2A), indicating a dysfunction in GAT-3/4 after stroke.

mice after stroke [1] = experiment: Cylinder task (spontaneous forelimb use when rearing) after stroke; type: in vivo, mouse; details: for gain of function post-stroke on the cylinder task: 7 to 42 days post-stroke
Description: (§4) Stroke completely destroys the tissue in at the center of the stroke (the core) and partially damages the tissue adjacent to the infarct (Katsman D, Spinelli K, Zhang J, and Carmichael S T (2003) Tissue microenvironments within functional cortical subdivisions adjacent to focal stroke. J Cereb Blood Flow Met 23:997-1009; Carmichael S T, Archibeque I, Luke L, Nolan T, Momiy J, Li S. (2005) Growth-Associated Gene Expression after Stroke: Evidence for a growth-promoting region in peri-infarct cortex. Expt Neurol. 193:291-311), i.e., the peri-infarct region. Studies indicate that this peri-infarct region is disabled through partial damage to neuronal circuits, as described above. To model this process experimentally, a stroke model was used that produces complete damage to a part of the brain that controls forelimb use in a mouse, the forelimb motor cortex (FIGS. 5A-5B). […] The stroke destroys part of the forelimb motor cortex. The vertical line indicates site of tissue sections in the middle panel. […] The stroke damage is restricted to the cortex, with partial damage in adjacent white mater and surrounding motor areas. This damage is seen as increased staining for GFAP (reactive astrocytes, arrows) and increased cellularity in Nissl stains (arrows). This stroke knocks out part of the forelimb motor cortex and causes partial damage to the rest of forelimb cortex and to hindlimb motor cortex. This disables fore- and hindlimb control and produces weakness in using these limbs for walking and for exploratory forelimb behaviors, (such as using the forelimb when rearing onto objects, FIGS. 6A-6C). Measures of fore- and hindlimb behaviors in this model of stroke thus provide a readout of the function of partially damaged brain areas near the stroke core.
Treatments that must be administered very early in the clinical course of stroke, such as tPA, are difficult to deliver because most patients are not in the hospital and so rapid emergency response and laboratory screening systems must be developed. […]

mice after stroke [2] = experiment: Behavioral/functional recovery after stroke (grid-walking and cylinder tasks together); type: in vivo, mouse
Protocol: The GABAaα5 inverse agonist L655,708 was administered through subcutaneously implanted osmotic minipumps. Mice were tested fore- and hindlimb function before, and then at one, two, four and six weeks after stroke.
FIGS. 9A-9C illustrate behavioral recovery after stroke in young and aged animals with L655,708. […] Functional recovery was assessed behaviorally on both the gridwalking task for forelimb footfaults (FIG. 9A) and hindlimb footfaults (FIG. 9B), and on the cylinder task for forelimb asymmetry (FIG. 9C). […] On average the normal gain of function in the aged stroke+vehicle treated animals is less than that of the young stroke+vehicle treated animals. In addition, the aged stroke+L655,708 animals show slightly less improvement compared to young stroke+L655,708 animals. For instance, on the cylinder task young stroke+L655,708 animals show a 15-18% gain of function post-stroke (7 to 42-days), compared with a 13-16% gain of function post-stroke in the aged. Data is shown as mean±s.e.m. for n=8 per group for L655,708 treatment for both young and aged animals, ***=P≤0.001 for stroke+vehicle vs Sham; +=P≤0.05, ++=P≤0.001 aged stroke+L655,708 vs aged stroke+vehicle, ##=P≤0.01, #=P≤0.001 young stroke+L655,708 vs young stroke+vehicle.
Functional recovery was assessed behaviorally on both the gridwalking task for forelimb footfaults (FIG. 10A), hindlimb footfaults (FIG. 10B), and on the cylinder task for forelimb asymmetry (FIG. 10C). Data are shown as mean±s.e.m. for n=8 per group, ***=P≤0.001 for stroke+vehicle vs. Sham; ##=P≤0.01, #=P≤0.001 vs. stroke+vehicle.
Two different durations of treatment were used (2 weeks and 6 weeks after stroke. Because stroke is a disease of aging, and the clinical target of stroke is most commonly aged patients, L655,708 was tested in aged animals after stroke. At the end of behavioral testing (6 weeks after stroke) mice received mapping of the pattern of cortical connections in the motor system in peri-infarct cortex (Overman J J, Kalaria S, Overman B, Willis D, Twiss J, Wanner I B, Li S, Carmichael S T (2008) Post-stroke blockade of ephrinA5 increases axonal sprouting in the mouse somatosensory cortex. Soc Neurosci. Abst.). Axonal sprouting in this pen-infarct cortex is closely associated with functional recovery in stroke (Carmichael, '06). Therapies directed toward neural repair after stroke promote the formation of new connections in peri-infarct cortex (Overman et al., '08).
To define the total role of GABAA α5 and δ receptors in functional recovery after stroke, behavioral testing was performed on Gabra5^−/− and Gabrd^−/− mice (FIGS. 8A-8C). For both α5 and δ knockouts, the same experimental approach was utilized. Mice were tested for e- and hindlimb function before stroke. […]

mice after stroke [3] = experiment: Grid-walking task after stroke in forelimb motor cortex; type: in vivo, mouse; details: subcutaneous osmotic minipump from 3 days after stroke
Description: as §4, with “This damage is seen as increased staining for GFAP (reactive astrocytes, arrows) and increased cellularity in Nissl stains (arrows). This stroke knocks out part of the forelimb motor cortex and causes partial damage to the rest of forelimb cortex and to hindlimb motor cortex. This disables fore- and hindlimb control and produces weakness in using these limbs for walking and for exploratory forelimb behaviors, (such as using the forelimb when rearing onto objects, FIGS. 6A-6C).” left out, “core. […]” for “core.”

[4] = biological target: T2, GABA transporters (GATs): GAT-1, GAT-3/4 (Mus musculus, UniProt P31648); experiment: Whole-cell patch-clamp of tonic inhibition (Itonic) in brain slices after GAT blockade; type: cell-based; details: NO-711 10 μM
T2 construct: Whole-cell patch-clamp recordings were made from post-stroke brain slices; from tissue; host or cells: brain slices, peri-infarct motor cortex, recordings from layer 2/3 pyramidal neurons
Description: as §1, §2, §3

With NCCCC(=O)O [GABA, gamma aminobutyric acid] the “percent increase in Itonic” value (GABAARs) was 25.7±15.0%.

With CCOC(=O)c1ncn2c1[C@@H]1CCCN1C(=O)c1cc(OC)ccc1-2 [L655,708] the “effect on Itonic” value (α5GABAA receptor; 100 nM, representative recording (FIG. 2D)) was “reduced Itonic”, the “effect on post-stroke Itonic” value (α5GABAA receptor; post-stroke neurons, P<0.05 (FIG. 2F)) was “significantly decreased post-stroke Itonic, and notably reverted Itonic to near-control level” and the “gain of function post-stroke on the cylinder task” value (mice after stroke [1]; aged stroke animals) was 13-16%. The “forelimb function in the cylinder task” value (mice after stroke [1]; subcutaneous osmotic minipump from 3 days after stroke, 7 day post-stroke test period, FIG. 6C) was “recovered right forelimb use very quickly”, the “gain of function post-stroke on the cylinder task” value (mice after stroke [1]; young stroke animals) was 15-18% and the “behavioral recovery after stroke, dosing duration” value (mice after stroke [2]; 2-week and 6-week treatment, 6-week the most significant recovery) was “produces behavioral recovery”. The “functional recovery after stroke in Gabrd−/− mice” value (mice after stroke [2]; L655,708 given to GABAA receptor δ subunit null mutant mice) was “additive effect on functional recovery; also recorded: further functional recovery”, the “functional recovery after stroke” value (mice after stroke [2]; treatment from 3 days after stroke, young and aged animals, FIGS. 9A-9C) was “increase in functional recovery in both young and aged animals” and the “behavioral recovery after stroke, dose dependence” value (mice after stroke [2]; young adult and aged mice, low and high dose) was “promotes behavioral recovery after stroke in a dose-dependent manner”. The “hindlimb function in the grid-walking task” value (mice after stroke [3]; FIG. 6B) was “statistically significant improvement by the 42 day testing period” and the “forelimb function in the grid-walking task” value (mice after stroke [3]; approx. 200 or 400 μg/kg/day, FIG. 6A) was “enhanced forelimb use”.

In the case of O=C(O)C1=CCCN(CCON=C(c2ccccc2)c2ccccc2)C1 [NO-711], the “% Itonic increase after GAT blockade” value ([4]; control neurons, n=6) is reported as 34.3±11.4% and the “% Itonic increase after GAT blockade” value ([4]; post-stroke neurons, n=10) is reported as 94.0±16.3%.
